The results in this text go back to PubChem BioAssay (NCI).

Holding throughout (assay): NCI anticancer screen, dose series, 48 h
Test [1] concerns SW-620 colon.
The subject of test [2] is UACC-62 melanoma.
Test [3] relates to 786-0 renal.
Test [4] relates to U251 CNS.
Test [5] concerns LOX IMVI melanoma.
For test [6], the system named is CAKI-1 renal.
Test [7] has as its system K-562 leukemia.
For test [8], the system named is OVCAR-8 ovarian.
The subject of test [9] is MALME-3M melanoma.
Test [10] deals with OVCAR-4 ovarian.

Values joined by “and” are separate entries in the source; they are usually repeats but may differ in a detail not shown here. Equal entries are not always repeated.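 Protocol summary: plate cells (96-well), add compound at 5 concentrations, incubate 48 h, interpolate endpoints linearly. Abbreviation: GI50, concentration required for 50% inhibition of growth. TGI denotes the concentration required for complete inhibition of growth.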 Where a SMILES comes first, the peptide text is derived from it. [ ]: non-standard residue; d: D form. 2Nal = N[CH](Cc1ccc2ccccc2c1)C(=O)O Some results are limits rather than exact numbers.

For the molecule `COc1ccc(C[C@H](N)C(=O)N2C[C@@H](CO)C[C@@H](n3cnc4c(N(C)C)ncnc43)C2)cc1`, the TGI in test [1], in test [2], in [3], in test [4], in test [5] and in test [6] was > 100 µM throughout. The TGI in test [7], in [8] and in test [9] was > 100 µM in each case.
With `CC1CCc2c(c(CC3CC(=O)NC(=O)C3)nn2-c2ccccc2)C1` (stereo not given), the TGI in test [1], in test [2], in test [3], in test [4], in [5] and in test [6] was > 100 µM in each case. The TGI in test [10], in test [7], in test [8] and in test [9] was > 100 µM each time.
As for `COc1cc2c(cc1OC)c1c(OC)c(OC)cc3c1c1c2sc(=S)n1CC3`, the TGI in test [1] is > 100 µM; in [2], 59.1 µM; in [3], 35.1 µM; in test [4], > 100 µM; in test [5], > 100 µM; in test [6], > 100 µM. Further, the TGI in [10], in [7], in [8] and in test [9] was > 100 µM in each case.
Regarding `C/C(CCn1[nH]c(=O)ccc1=O)=N\Nc1ccc([N+](=O)[O-])cc1[N+](=O)[O-]`, the TGI in test [1], in [2], in test [3], in test [5], in [6] and in [10] was > 100 µM each time. Besides, the TGI in [7], in test [8] and in test [9] was > 100 µM throughout.
As for `COc1cc2ncn(-c3cc(OCc4ccccc4C(F)(F)F)c(C(C)=O)s3)c2cc1OC`, the GI50 in test [1], in test [2], in test [3], in [4], in test [5] and in [6] was > 25 µM each time. The GI50 in [10] is > 25 µM; in test [7], > 25 µM; in [8], > 25 µM; in [9], > 16.8 µM. The TGI in test [1], in [2], in test [3], in [4], in [5] and in test [6] was > 25 µM each time. Moreover, the TGI in test [10], in test [7], in test [8] and in test [9] was > 25 µM throughout.
Take `CC1=NN(C(=O)c2ccncc2)C(=O)C1N=Nc1ccc2ccccc2c1` (stereo not given): the TGI in test [1], in test [2], in test [3], in test [4], in test [5] and in [6] was > 100 µM throughout. For the same molecule, the TGI in test [10] was > 100 µM; in test [7], > 70.7 µM; in test [8], > 100 µM; in test [9], > 100 µM.
As to `CCOC(=O)c1cc(-c2ccc(OC)c(OC)c2)[nH]c1N/N=C/c1c(Cl)cccc1Cl`, the GI50 in test [1] was 2.5 µM; in test [2], 0.704 µM; in test [3], 2.77 µM; in test [4], 2.15 µM; in test [5], 3.6 µM; in test [6], 1.59 µM. Also, the GI50 in [10] is 4.46 µM; in test [7] it was 1.69 µM; in test [8], 3.69 µM; in test [9] it was 2.88 µM. The TGI in test [1] is > 44.5 µM; in test [2] it was 6.64 µM; in test [3] it was 12.3 µM; in test [4] it was 18.2 µM; in test [5], 20.5 µM; in [6] it was 11.4 µM. The TGI in test [10] is > 62.7 µM; in test [7] it was > 100 µM; in test [8], > 100 µM; in test [9], 16.7 µM.
For the molecule `C=C1CCC2C3(C)COC(c4ccc(Cl)cc4)OC3CCC2(C)C1/C=C/C1=CCOC1=O` (stereo not given), the GI50 was > 100 µM in test [1]; 4 µM in test [2]; 29.8 µM in test [3]; 5.68 µM in test [4]; 0.985 µM in [5]; 6.87 µM in test [6]. Further, the GI50 is 4.07 µM in [8] and 11.3 µM in test [9]. Also, the TGI in test [1] is > 100 µM; in test [2], > 100 µM; in [3], > 100 µM; in test [4] it was 46.2 µM; in test [5] it was 17.6 µM; in [6], > 100 µM. Moreover, the TGI in test [7] was > 100 µM; in [8] it was > 100 µM; in test [9], 71.4 µM.
As for `Cc1cc(C)nc(NS(=O)(=O)c2ccc(NC(=O)c3ccc(Cl)c4c(Nc5ccc(S(=O)(=O)N=C(N)N)cc5)c5ccccc5nc34)cc2)n1`, the TGI in [1] was 76 µM; in test [2], > 100 µM; in test [3] it was 96.1 µM; in test [4] it was > 100 µM; in test [5] it was 44.4 µM; in test [6], > 100 µM. Moreover, the TGI in test [10], in [7], in test [8] and in test [9] was > 100 µM each time.
Consider `CN1CCN(Cc2ccc(NC(=O)c3cncc(C#Cc4cnn5ccccc45)c3)cc2C(F)(F)F)CC1`, for which the GI50 in test [1] is 0.382 µM; in [2] it was 0.996 µM; in test [3] it was 1.1 µM; in [4], 1.06 µM; in test [5] it was 0.588 µM; in test [6] it was 0.94 µM. In addition, the GI50 is 0.445 µM in test [10], 0.005 µM in test [7], 1.22 µM in [8] and 0.604 µM in [9]. Moreover, the TGI is 3.22 µM in test [1]; 2.38 µM in test [2]; 2.26 µM in test [3]; 4.15 µM in test [4]; 1.37 µM in test [5]; 4.56 µM in test [6]. In addition, the TGI in [10] stood at 2.95 µM; in test [7], 3.16 µM; in test [8], 4.68 µM; in test [9], 1.45 µM.
In the case of `CN(C)CCNC(=O)c1cccc2ncc(-c3ccccc3)nc12`, the TGI in [1] is 63.5 µM; in [2] it was 27.2 µM; in [3] it was > 100 µM; in test [4] it was 41.7 µM; in [5], 29.5 µM; in test [6], > 68.6 µM. In addition, the TGI in test [10] was 26.7 µM; in [7], 61.9 µM; in test [8], > 93 µM; in [9], 26.5 µM.
Take `COc1ccc(NC(=O)CCc2cc(C(C)(C)C)n[nH]2)cc1`: the TGI in test [1], in [2], in test [3], in test [4], in test [5] and in test [6] was > 100 µM throughout. Besides, the TGI in test [7], in test [8] and in test [9] was > 100 µM each time.
Regarding `CC(C)(C)c1ccc(O)c(CN(Cc2cc(C(C)(C)C)ccc2O)C2CCCCC2)c1`, the TGI in [1] is 35.1 µM; in [2] it was 31.4 µM; in [3] it was 29.8 µM; in test [4], 30.4 µM; in test [5], 24.1 µM; in [6], > 70.1 µM. The TGI in [10] was determined as 50.3 µM; in [7], 27.9 µM; in test [8] it was 42 µM; in test [9] it was 30.8 µM.
Take `C#CCN(N=O)C(=O)NCCCC(NC(C)=O)C(=O)NCc1ccccc1` (stereo not given): the TGI in [1], in test [2], in test [3], in test [4], in [5] and in [6] was > 100 µM in each case. Moreover, the TGI in test [10], in test [7], in test [8] and in test [9] was > 100 µM in each case.
Regarding `O=C1[C@H](Cl)[C@H]2c3cc4ccccc4nc3Oc3ccccc3N12`, the TGI in test [1] was > 100 µM; in [2], 42.5 µM; in [3], > 100 µM; in test [4], > 100 µM; in test [5], > 100 µM; in test [6] it was > 100 µM. The TGI in [10], in [8] and in [9] was > 100 µM each time.
With `CC(C)C(NC(=O)C(CCCCN)NC(=O)C(Cc1c[nH]c2ccccc12)NC(=O)C(Cc1ccc(O)cc1)NC(=O)C(CS)NC(=O)C(N)Cc1ccc2ccccc2c1)C(=O)NC(CS)C(=O)NC(C(N)=O)C(C)O` (stereo not given) (H-[2Nal]CYWKVCT-NH2; configuration not given here), the GI50 in test [1], in test [2], in [3], in test [4], in test [6] and in test [10] was > 100 µM throughout. In addition, the GI50 in [7] and in [8] was > 100 µM each time. For the same molecule, the TGI is > 100 µM in [1]; > 100 µM in test [2]; > 100 µM in test [3]; > 100 µM in test [4]; > 12.5 µM in test [5]; > 100 µM in test [6]. In addition, the TGI in test [10] is > 100 µM; in test [7], > 100 µM; in test [8] it was > 100 µM; in test [9], > 12.5 µM.
Take `C1CCN2CC3CCCN4CCCC(C2C1)C34` (stereo not given): the TGI in [1], in test [2], in test [3], in [4], in test [5] and in [6] was > 100 µM throughout. Besides, the TGI in test [10], in test [7], in [8] and in [9] was > 100 µM in each case. Besides, the GI50 in test [10] is > 100 µM and 24.7 µM.
`COC(=O)C(=O)C(C(=O)C(=O)Nc1ccc(C)cc1)c1nc2ccc(C(=O)c3ccccc3)cc2[nH]c1=O` (stereo not given): the TGI in test [1], in [2], in [3], in [4], in [5] and in test [6] was > 100 µM each time. The TGI in test [10], in test [7], in test [8] and in test [9] was > 100 µM in each case.
Turning to `C/C=C(/C)C(=O)OC1C=C(CO)C(=O)C(OC(=O)C(C)(O)C(C)Cl)C1C(C)C` (stereo not given), the GI50 in test [1] is 1.69 µM; in test [2], 0.744 µM; in test [3], 1.67 µM; in [4] it was 1.38 µM; in [5] it was 1.31 µM; in [6], 1.61 µM. Moreover, the GI50 in [10] is 1.87 µM; in test [7] it was 0.396 µM; in test [8], 1.56 µM; in [9] it was 0.474 µM. Moreover, the TGI in test [1] was found to be 4.08 µM; in [2] it was 2.05 µM; in test [3] it was 3.12 µM; in test [4], 2.8 µM; in [5] it was 2.82 µM; in [6], 2.98 µM. The TGI in test [10] is 3.95 µM; in [7] it was 12.5 µM; in [8], 5.3 µM; in test [9], 1.85 µM.
For `CC(=O)O/N=C(Cl)/C(Cl)=N/OC(C)=O`, the TGI in test [1], in test [2], in [3], in [4], in test [5] and in test [6] was > 100 µM throughout. The TGI in test [10], in test [7], in test [8] and in test [9] was > 100 µM throughout.
On to `O=C1NC(S(=O)(=O)O)=NNC12c1ccccc1-c1ccccc12`, for which the TGI in [1], in [2], in test [3], in [5], in test [6] and in [10] was > 10 µM each time. The TGI in [7], in test [8] and in [9] was > 10 µM throughout.
Turning to `NNC(=O)N/N=C1\C(=O)N(c2nccs2)C(=O)C(=O)C1c1nc2ccccc2s1` (stereo not given), the TGI in test [1], in [2], in test [3], in test [4], in test [5] and in test [6] was > 100 µM throughout. In addition, the TGI in test [10], in [8] and in test [9] was > 100 µM in each case.
